Experimental data published in US20260250251A1, “HETEROCYCLIC COMPOUNDS AS PI3Ka INHIBITORS” (Pikavation Therapeutics, Inc., priority 2022, published 2026).

Assays:
[1] = tested on: SKBR3 (PIK3CA WT) cells, pSer473 AKT; experiment: pS473 AKT assay in SKBR3 cells; format: cell-based; settings: Homo sapiens, SK-BR-3, treated 2 h, read-out: SKBR3_IC50
Protocol: (§1) SKBR3 (PIK3CA WT), MCF7 (PIK3CA E545K), and T47D (PIK3CA H1047R) cells were cultured using 10-cm petri dishes with recommended medium. One day before the assay, cells were seeded in 96-well plates. After overnight incubation, cells were treated with different concentrations of PI3Kα inhibitors for 2 h. Cells were then fixed using 4% paraformaldehyde at room temperature for 20 min. Cells were aspirated with 4% paraformaldehyde, and washed using 1× regular phosphate buffered saline 3 times, 5 min each. Any residual phosphate buffered saline was aspirated and cells were blocked using 10% goat serum containing 1% bovine serum albumin and 0.3% Triton X-100 at room temperature for 1 h. Without any additional washing, primary antibodies (rabbit anti-pSer473 AKT) were diluted using blocking buffer and added at a final volume of 50 microliter per well. Assay plates with primary antibodies were maintained overnight at 4° C. Cells were washed using 1× regular phosphate buffered saline 3 times, 5 min each. After the final wash, cells were incubated with horseradish peroxidase-conjugated secondary antibodies (goat Anti-rabbit IgG) and diluted using the same blocking buffer at room temperature for 1 h. Cells were then washed thoroughly using 1× regular phosphate buffered saline 3 times, 5 min each, and any residual phosphate buffered saline was aspirated. Super-Signal ELISA Pico Chemiluminescent Substrate was then added at a final volume of 100 microliter per well. Plates were read on a i3x Multi-Mode Microplate Reader and IC50 values calculated using GraphPad Prism software.
(§2) Results of the assay described above are presented in Table A. “++++” indicates an IC50 less than 1000 nM; “+++” indicates an IC50 greater than or equal to 1000 nM but less than 5000 nM; “++” indicates an IC50 greater than or equal to 5000 nM but less than 10000 nM; and “+” indicates an IC50 greater than or equal to 10000 nM.

[2] = tested on: T47D (PIK3CA H1047R) cells, pSer473 AKT; experiment: pS473 AKT assay in T47D cells; format: cell-based; settings: Homo sapiens, treated 2 h, read-out: T47D_IC50
Protocol: as §1, §2

Nc1nn2c3c(cc(NC(=O)c4cc(F)cc(C(F)(F)F)c4)c(Oc4cc(F)ccc4Cl)c13)-c1ccccc1C2 [Example 70, N-(4-Amino-3-(2-chloro-5-fluorophenoxy)-7H-pyrazolo[4,5,1-de]phenanthridin-2-yl)-3-fluoro-5-(trifluoromethyl)benzamide]
IC50 [1]: ≥ 10000 nM | IC50 [2]: < 1000 nM

CN1CCC(C#Cc2cc(NC(=O)c3cc(F)cc(C(F)(F)F)c3)c(Oc3cc(F)ccc3Cl)c3c(N)nn(C)c23)CC1 [Example 51, N-(3-Amino-4-(2-chloro-5-fluorophenoxy)-1-methyl-7-((1-methylpiperidin-4-yl)ethynyl)-1H-indazol-5-yl)-3-fluoro-5-(trifluoromethyl)benzamide]
IC50 [1]: ≥ 10000 nM | IC50 [2]: < 1000 nM

Cn1nc(N)c2c(Oc3cc(F)ccc3Cl)c(NC(=O)c3cc(F)cc(C(F)(F)F)c3)cc(Cl)c21 [Example 24, N-(3-Amino-7-chloro-4-(2-chloro-5-fluorophenoxy)-1-methyl-1H-indazol-5-yl)-3-fluoro-5-(trifluoromethyl)benzamide]
IC50 [1]: < 1000 nM | IC50 [2]: < 1000 nM

CCn1nc(N)c2c(Oc3cc(F)ccc3Cl)c(NC(=O)c3cc(F)cc(C(F)(F)F)c3)ccc21 [Example 8, N-(3-Amino-4-(2-chloro-5-fluorophenoxy)-1-ethyl-1H-indazol-5-yl)-3-fluoro-5-(trifluoromethyl)benzamide]
IC50 [1]: < 1000 nM | IC50 [2]: < 1000 nM

C#Cc1cc(NC(=O)c2cc(F)cc(C(F)(F)F)c2)c(Oc2cc(F)ccc2Cl)c2c(N)nn(C)c12 [Example 47, N-(3-Amino-4-(2-chloro-5-fluorophenoxy)-7-ethynyl-1-methyl-1H-indazol-5-yl)-3-fluoro-5-(trifluoromethyl)benzamide]
IC50 [1]: 1000 to 5000 nM | IC50 [2]: < 1000 nM

CNC(=O)Cn1nc(N)c2c(Oc3cc(F)ccc3Cl)c(NC(=O)c3cc(F)cc(C(F)(F)F)c3)ccc21 [Example 9, N-(3-Amino-4-(2-chloro-5-fluorophenoxy)-1-(2-(methylamino)-2-oxoethyl)-1H-indazol-5-yl)-3-fluoro-5-(trifluoromethyl)benzamide]
IC50 [1]: 1000 to 5000 nM | IC50 [2]: < 1000 nM

Cn1nc(N)c2c(Oc3cc(F)ccc3Cl)c(NC(=O)c3cc(F)cc(C(F)(F)F)c3)cc(C#CC3CC3)c21 [Example 42, N-(3-Amino-4-(2-chloro-5-fluorophenoxy)-7-(cyclopropylethynyl)-1-methyl-1H-indazol-5-yl)-3-fluoro-5-(trifluoromethyl)benzamide]
IC50 [1]: 1000 to 5000 nM | IC50 [2]: < 1000 nM

Cn1nncc1-c1cc(NC(=O)c2cc(F)cc(C(F)(F)F)c2)c(Oc2cc(F)ccc2Cl)c2c(N)nn(C)c12 [Example 30, N-(3-Amino-4-(2-chloro-5-fluorophenoxy)-1-methyl-7-(1-methyl-1H-1,2,3-triazol-5-yl)-1H-indazol-5-yl)-3-fluoro-5-(trifluoromethyl)benzamide]
IC50 [1]: < 1000 nM | IC50 [2]: < 1000 nM

Cn1nc(N)c2c(Oc3cc(F)ccc3Cl)c(NC(=O)c3cc(F)cc(C(F)(F)F)c3)cc(C#CC(C)(C)N)c21 [Example 40, N-(3-Amino-7-(3-amino-3-methylbut-1-yn-1-yl)-4-(2-chloro-5-fluorophenoxy)-1-methyl-1H-indazol-5-yl)-3-fluoro-5-(trifluoromethyl)benzamide]
IC50 [1]: < 1000 nM | IC50 [2]: < 1000 nM

Cn1nc(N)c2c(Oc3cc(F)ccc3Cl)c(NC(=O)c3cc(F)cc(C(F)(F)F)c3)cc(C#CC3CCCCN3)c21 (stereo not shown) [Example 78, N-(3-Amino-4-(2-chloro-5-fluorophenoxy)-1-methyl-7-(piperidin-2-ylethynyl)-1H-indazol-5-yl)-3-fluoro-5-(trifluoromethyl)benzamide]
IC50 [1]: 1000 to 5000 nM | IC50 [2]: < 1000 nM

Cn1nc(N)c2c(Oc3cc(F)ccc3Cl)c(NC(=O)c3cc(F)cc(C(F)(F)F)c3)cc(C#CC3(C)COC3)c21 [Example 46, N-(3-Amino-4-(2-chloro-5-fluorophenoxy)-1-methyl-7-((3-methyloxetan-3-yl)ethynyl)-1H-indazol-5-yl)-3-fluoro-5-(trifluoromethyl)benzamide]
IC50 [1]: 1000 to 5000 nM | IC50 [2]: < 1000 nM

Cn1cc(-c2cc(NC(=O)c3cc(F)cc(C(F)(F)F)c3)c(Oc3cc(F)ccc3Cl)c3c(N)n[nH]c23)cn1 [Example 14, N-(3-Amino-4-(2-chloro-5-fluorophenoxy)-7-(1-methyl-1H-pyrazol-4-yl)-1H-indazol-5-yl)-3-fluoro-5-(trifluoromethyl)benzamide]
IC50 [1]: 1000 to 5000 nM | IC50 [2]: < 1000 nM

Nc1nn2c3c(cc(NC(=O)c4cc(F)cc(C(F)(F)F)c4)c(Oc4cc(F)ccc4Cl)c13)CN(C1CCC1)C2=O [Example 72, N-(2-Amino-3-(2-chloro-5-fluorophenoxy)-7-cyclobutyl-8-oxo-7,8-dihydro-6H-pyrazolo[4,5,1-ij]quinazolin-4-yl)-3-fluoro-5-(trifluoromethyl)benzamide]
IC50 [1]: < 1000 nM | IC50 [2]: < 1000 nM

Cn1cnc(C#Cc2cc(NC(=O)c3cc(F)cc(C(F)(F)F)c3)c(Oc3cc(F)ccc3Cl)c3c(N)nn(C)c23)c1 [Example 50, N-(3-Amino-4-(2-chloro-5-fluorophenoxy)-1-methyl-7-((1-methyl-1H-imidazol-4-yl)ethynyl)-1H-indazol-5-yl)-3-fluoro-5-(trifluoromethyl)benzamide]
IC50 [1]: 5000 to 10000 nM | IC50 [2]: < 1000 nM

Nc1n[nH]c2c(CO)cc(NC(=O)c3cc(F)cc(C(F)(F)F)c3)c(Oc3cc(F)ccc3Cl)c12 [Example 23, N-(3-Amino-4-(2-chloro-5-fluorophenoxy)-7-(hydroxymethyl)-1H-indazol-5-yl)-3-fluoro-5-(trifluoromethyl)benzamide]
IC50 [1]: < 1000 nM | IC50 [2]: < 1000 nM

CC(=O)N1CCCCC1C#Cc1cc(NC(=O)c2cc(F)cc(C(F)(F)F)c2)c(Oc2cc(F)ccc2Cl)c2c(N)nn(C)c12 (stereo not shown) [Example 79, N-(7-((1-Acetylpiperidin-2-yl)ethynyl)-3-amino-4-(2-chloro-5-fluorophenoxy)-1-methyl-1H-indazol-5-yl)-3-fluoro-5-(trifluoromethyl)benzamide]
IC50 [1]: 1000 to 5000 nM | IC50 [2]: < 1000 nM

Cn1nc(N)c2c(Oc3cc(F)ccc3Cl)c(NC(=O)c3cc(F)cc(C(F)(F)F)c3)cc(CCc3ccccn3)c21 [Example 77, N-(3-Amino-4-(2-chloro-5-fluorophenoxy)-1-methyl-7-(2-(pyridin-2-yl)ethyl)-1H-indazol-5-yl)-3-fluoro-5-(trifluoromethyl)benzamide]
IC50 [1]: 1000 to 5000 nM | IC50 [2]: < 1000 nM

CNc1nn(C)c2c(Cl)cc(NC(=O)c3cc(F)cc(C(F)(F)F)c3)c(Oc3cc(F)ccc3Cl)c12 [Example 53, N-(7-chloro-4-(2-chloro-5-fluorophenoxy)-1-methyl-3-(methylamino)-1H-indazol-5-yl)-3-fluoro-5-(trifluoromethyl)benzamide]
IC50 [1]: ≥ 10000 nM | IC50 [2]: < 1000 nM

Nc1nn(CCO)c2c(C#Cc3ccccn3)cc(NC(=O)c3cc(F)cc(C(F)(F)F)c3)c(Oc3cc(F)ccc3Cl)c12 [Example 67, N-(3-Amino-4-(2-chloro-5-fluorophenoxy)-1-(2-hydroxyethyl)-7-(pyridin-2-ylethynyl)-1H-indazol-5-yl)-3-fluoro-5-(trifluoromethyl)benzamide]
IC50 [1]: 1000 to 5000 nM | IC50 [2]: < 1000 nM

Cn1nc(N)c2c(Oc3cc(F)ccc3Cl)c(NC(=O)c3cc(F)cc(C(F)(F)F)c3)cc(CCO)c21 [Example 66, N-(3-Amino-4-(2-chloro-5-fluorophenoxy)-7-(2-hydroxyethyl)-1-methyl-1H-indazol-5-yl)-3-fluoro-5-(trifluoromethyl)benzamide]
IC50 [1]: < 1000 nM | IC50 [2]: < 1000 nM
